# Laboratory results taken from ChEMBL document CHEMBL1201862, “PubChem BioAssay data set” (2004).
#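 Assay format: 96-well plates, 48-hour exposure. Here, GI50 denotes the concentration required for 50% inhibition of growth.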 The source made the active and inactive calls. Cut-off read from the data, not from the text of the source: active = GI50 up to about 1.1 µM and inactive = higher.
# Legend:
# Experiment in all cases: NCI tumour cell line growth inhibition, 48 h
# SNB-19 = test system: SNB-19
# OVCAR-3 = test system: OVCAR-3
# HL-60 = test system: HL-60
# OVCAR-8 = test system: OVCAR-8
# SK-OV-3 = test system: SK-OV-3
# OVCAR-4 = test system: OVCAR-4
# SF-539 = test system: SF-539
# 786-0 = test system: 786-0
# BT-549 = test system: BT-549
# U-251 = test system: U-251
# TK-10 = test system: TK-10
# HCT-15 = test system: HCT-15
# CAKI-1 = test system: CAKI-1
# NCI-H23 = test system: NCI-H23
# SK-MEL-28 = test system: SK-MEL-28
# Hs-578T = test system: Hs-578T
# MDA-N = test system: MDA-N
# K562 = test system: K562
# Malme-3M = test system: Malme-3M
# RXF 393 = test system: RXF 393
SMILES,GI50 (SNB-19),GI50 (OVCAR-3),GI50 (HL-60),GI50 (OVCAR-8),GI50 (SK-OV-3),GI50 (OVCAR-4),GI50 (SF-539),GI50 (786-0),GI50 (BT-549),GI50 (U-251),GI50 (TK-10),GI50 (HCT-15) [µM],GI50 (CAKI-1),GI50 (NCI-H23),GI50 (SK-MEL-28),GI50 (Hs-578T),GI50 (MDA-N),GI50 (K562),GI50 (Malme-3M),GI50 (RXF 393)
Cc1ccc(/C=C2/NC(=S)SC2=O)cc1,29.5 µM (inactive),43.7 µM (inactive),27.4 µM (inactive),31 µM (inactive),88.1 µM (inactive),28.9 µM (inactive),30 µM (inactive),34.6 µM (inactive),22.6 µM (inactive),43.9 µM (inactive),18.1 µM (inactive),24.2,19.6 µM (inactive),20.7 µM (inactive),> 100 µM (inactive),–,–,–,–,–
O=C(CC(C(=O)c1ccc(F)cc1)c1ccsc1)c1cccs1 (stereo not given),> 100 µM (inactive),–,55.2 µM (inactive),> 100 µM (inactive),> 100 µM (inactive),94.8 µM (inactive),> 100 µM (inactive),> 100 µM (inactive),–,> 100 µM (inactive),> 100 µM (inactive),86.9,> 100 µM (inactive),32.7 µM (inactive),> 100 µM (inactive),> 100 µM (inactive),79.8 µM (inactive),> 100 µM (inactive),36 µM (inactive),–
COc1cc2c(cc1C)NC(=O)/C2=C\c1cccnc1,12.6 µM (inactive),13.7 µM (inactive),5 µM (inactive),15.5 µM (inactive),16.3 µM (inactive),18.7 µM (inactive),20.4 µM (inactive),25 µM (inactive),21.9 µM (inactive),12.9 µM (inactive),14.9 µM (inactive),16.4,15.4 µM (inactive),10.8 µM (inactive),50.4 µM (inactive),24.7 µM (inactive),–,9.4 µM (inactive),15 µM (inactive),17.4 µM (inactive)
CN(Cc1cnc2nc(N)nc(N)c2n1)c1ccc(C(=O)NC(CCC(=O)NC(P(=O)(O)O)P(=O)(O)O)C(=O)O)cc1 (stereo not given),9.18 µM (inactive),> 100 µM (inactive),7.18 µM (inactive),4.33 µM (inactive),–,> 100 µM (inactive),32.6 µM (inactive),7.31 µM (inactive),–,6.43 µM (inactive),> 100 µM (inactive),22.9,12.4 µM (inactive),50.8 µM (inactive),83 µM (inactive),> 100 µM (inactive),16.2 µM (inactive),4.21 µM (inactive),> 100 µM (inactive),4.79 µM (inactive)
CCN(CC)CCCC(C)NC(=O)c1ccc2c(c1)C(=O)c1ccccc1C2=O (stereo not given),21.6 µM (inactive),7.74 µM (inactive),13.5 µM (inactive),22.3 µM (inactive),40.1 µM (inactive),15.1 µM (inactive),19.2 µM (inactive),18.6 µM (inactive),–,20.1 µM (inactive),24.2 µM (inactive),17.9,25.9 µM (inactive),15.4 µM (inactive),17.9 µM (inactive),–,–,18.3 µM (inactive),12.9 µM (inactive),19.7 µM (inactive)
Cc1ccc(O)cc1.Cc1cccc(O)c1.Cc1ccccc1O [CRESOL],> 100 µM (inactive),> 100 µM (inactive),> 100 µM (inactive),> 100 µM (inactive),> 100 µM (inactive),89.3 µM (inactive),> 100 µM (inactive),> 100 µM (inactive),> 100 µM (inactive),> 100 µM (inactive),> 100 µM (inactive),> 100,> 100 µM (inactive),> 100 µM (inactive),> 100 µM (inactive),4.75 µM (inactive),–,> 100 µM (inactive),8.61 µM (inactive),> 100 µM (inactive)
